In brackets after ≈: the same amount, converted by molar mass.
How the values were obtained:
[1] = target: T1, Protein cereblon/Protein Wiz (Homo sapiens, UniProt Q96SW2+O95785); experiment: Molecular glue activity at CRBN/WIZ in human CD34-positive derived primary erythroblast cells assessed as induction of WIZ degradation by measuring maximal efficacy measured after 24 hrs by flow cytometric analysis relative to control; format: cell-based
[2] = AUClast in C57BL/6 mouse at 3 mg/kg, po; format: ADME, organism-based; settings: in vivo
[3] = Cmax in C57BL/6 mouse at 3 mg/kg, po; format: ADME, organism-based; settings: in vivo
[4] = target: T2, Protein cereblon/Sal-like protein 4 (Homo sapiens, UniProt Q96SW2+Q9UJQ4); experiment: Molecular glue activity at CRBN/HiBiT-tagged SALL4 (unknown origin) expressed in human GripTite 293 MSR cells assessed as induction of SALL4 degradation incubated for 20 hrs by Nano-Glo HiBiT-Lytic reagent based luminescence plate reader analysis; format: cell-based
[5] = Intrinsic clearance in human liver microsomes; format: ADME, Microsome; settings: read-out: CLH
[6] = Volume of distribution at steady state in C57BL/6 mouse at 1 mg/kg, iv; format: ADME, organism-based; settings: in vivo, read-out: Vdss
[7] = Solubility of compound in potassium phosphate buffer at pH 6.8 incubated for 16 to 24 hrs by high-throughput Agilent Rapidfire-MS/MS analysis; format: physicochemical; settings: time 16-24 hrs
[8] = target: T3, Cereblon/Ikaros (Homo sapiens, UniProt Q96SW2+Q13422); experiment: Molecular glue activity at CRBN/HiBiT-tagged IKZF1 (unknown origin) expressed in human GripTite 293 MSR cells assessed as induction of […] incubated for 20 hrs by Nano-Glo HiBiT-Lytic reagent based luminescence plate reader analysis; format: cell-based
[9] = Protein binding in mouse plasma; format: ADME, cell-free; settings: read-out: PPB (converted)
[10] = Tmax in C57BL/6 mouse at 3 mg/kg, po or 1 mg/kg, iv; format: ADME, organism-based; settings: in vivo
[11] = Apparent permeability across apical to basolateral side in low efflux MDCK cells assessed as drug recovery at 10 uM incubated for 2 hrs by LC-MS analysis; format: ADME, cell-based, Canis lupus familiaris; settings: dog, read-out: Drug recovery
[12] = Clearance in C57BL/6 mouse at 1 mg/kg, iv; format: ADME, organism-based; settings: in vivo
[13] = target: T2, Protein cereblon/Sal-like protein 4; experiment: Molecular glue activity at CRBN/HiBiT-tagged SALL4 (unknown origin) expressed in human GripTite 293 MSR cells assessed as induction of SALL4 degradation incubated for 20 hrs by Nano-Glo HiBiT-Lytic reagent based luminescence plate reader analysis relative to control; format: cell-based; set-up: concentration or dose not given beside the values
[14] = Intrinsic clearance in mouse liver microsomes; format: ADME, Microsome; settings: read-out: CLH
[15] = target: T4, Protein cereblon/Eukaryotic peptide chain release factor GTP-binding subunit ERF3A (Homo sapiens, UniProt Q96SW2+P15170); experiment: Molecular glue activity at CRBN/HiBiT-tagged GSPT1 (unknown origin) expressed in human GripTite 293 MSR cells assessed as induction of GSPT1 degradation incubated for 20 hrs by Nano-Glo HiBiT-Lytic reagent based luminescence plate reader analysis; format: cell-based
Target sequence in this assay (Q96SW2 whole entry): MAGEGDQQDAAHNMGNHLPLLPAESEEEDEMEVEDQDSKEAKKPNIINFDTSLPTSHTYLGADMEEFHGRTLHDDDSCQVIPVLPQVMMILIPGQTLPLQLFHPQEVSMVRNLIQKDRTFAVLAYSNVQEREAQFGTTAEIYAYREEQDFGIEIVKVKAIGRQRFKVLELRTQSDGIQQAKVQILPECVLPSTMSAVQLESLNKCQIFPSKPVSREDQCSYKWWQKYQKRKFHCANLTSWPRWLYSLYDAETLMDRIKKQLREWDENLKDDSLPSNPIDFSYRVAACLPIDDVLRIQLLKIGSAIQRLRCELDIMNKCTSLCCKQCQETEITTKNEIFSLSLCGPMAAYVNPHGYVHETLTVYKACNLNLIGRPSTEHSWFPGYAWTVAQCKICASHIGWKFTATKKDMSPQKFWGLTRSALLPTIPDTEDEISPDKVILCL
Target sequence in this assay (P15170 whole entry): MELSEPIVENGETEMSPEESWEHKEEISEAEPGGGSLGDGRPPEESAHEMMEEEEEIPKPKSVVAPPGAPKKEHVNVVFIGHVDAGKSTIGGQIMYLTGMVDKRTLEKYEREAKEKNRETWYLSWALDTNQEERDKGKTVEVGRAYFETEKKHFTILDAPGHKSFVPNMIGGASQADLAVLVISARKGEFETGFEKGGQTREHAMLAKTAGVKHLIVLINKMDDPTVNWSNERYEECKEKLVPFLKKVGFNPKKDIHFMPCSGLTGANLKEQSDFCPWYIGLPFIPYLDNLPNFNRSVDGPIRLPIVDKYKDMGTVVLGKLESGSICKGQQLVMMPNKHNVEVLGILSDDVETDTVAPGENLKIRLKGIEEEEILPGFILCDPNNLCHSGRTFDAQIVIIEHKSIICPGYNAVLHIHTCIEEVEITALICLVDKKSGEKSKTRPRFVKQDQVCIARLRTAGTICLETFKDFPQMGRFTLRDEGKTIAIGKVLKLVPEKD

[16] = Protein binding in rat plasma; format: ADME, cell-free; settings: read-out: PPB (converted)
[17] = Bioavailability last in C57BL/6 mouse; format: ADME, organism-based; settings: in vivo
[18] = target: T1, Protein cereblon/Protein Wiz; experiment: Molecular glue activity at CRBN/WIZ in human CD34-positive derived primary erythroblast cells assessed as increase in fetal hemoglobin positive cells in CD71+ CD235a+ subpopulation measured after 7 days by flow cytometric analysis relative to control; format: cell-based; settings: time 7.0 day
[19] = target: T1, Protein cereblon/Protein Wiz; experiment: Molecular glue activity at CRBN/HiBiT-tagged WIZ (unknown origin) expressed in HEK293T cells assessed as induction of WIZ degradation incubated for 18 hrs by Nano-Glo HiBiT-Lytic reagent based luminescence plate reader analysis; format: cell-based
Target sequence in this assay (Q96SW2 whole entry): as the sequence (Q96SW2 whole entry) above
Target sequence in this assay (O95785 whole entry): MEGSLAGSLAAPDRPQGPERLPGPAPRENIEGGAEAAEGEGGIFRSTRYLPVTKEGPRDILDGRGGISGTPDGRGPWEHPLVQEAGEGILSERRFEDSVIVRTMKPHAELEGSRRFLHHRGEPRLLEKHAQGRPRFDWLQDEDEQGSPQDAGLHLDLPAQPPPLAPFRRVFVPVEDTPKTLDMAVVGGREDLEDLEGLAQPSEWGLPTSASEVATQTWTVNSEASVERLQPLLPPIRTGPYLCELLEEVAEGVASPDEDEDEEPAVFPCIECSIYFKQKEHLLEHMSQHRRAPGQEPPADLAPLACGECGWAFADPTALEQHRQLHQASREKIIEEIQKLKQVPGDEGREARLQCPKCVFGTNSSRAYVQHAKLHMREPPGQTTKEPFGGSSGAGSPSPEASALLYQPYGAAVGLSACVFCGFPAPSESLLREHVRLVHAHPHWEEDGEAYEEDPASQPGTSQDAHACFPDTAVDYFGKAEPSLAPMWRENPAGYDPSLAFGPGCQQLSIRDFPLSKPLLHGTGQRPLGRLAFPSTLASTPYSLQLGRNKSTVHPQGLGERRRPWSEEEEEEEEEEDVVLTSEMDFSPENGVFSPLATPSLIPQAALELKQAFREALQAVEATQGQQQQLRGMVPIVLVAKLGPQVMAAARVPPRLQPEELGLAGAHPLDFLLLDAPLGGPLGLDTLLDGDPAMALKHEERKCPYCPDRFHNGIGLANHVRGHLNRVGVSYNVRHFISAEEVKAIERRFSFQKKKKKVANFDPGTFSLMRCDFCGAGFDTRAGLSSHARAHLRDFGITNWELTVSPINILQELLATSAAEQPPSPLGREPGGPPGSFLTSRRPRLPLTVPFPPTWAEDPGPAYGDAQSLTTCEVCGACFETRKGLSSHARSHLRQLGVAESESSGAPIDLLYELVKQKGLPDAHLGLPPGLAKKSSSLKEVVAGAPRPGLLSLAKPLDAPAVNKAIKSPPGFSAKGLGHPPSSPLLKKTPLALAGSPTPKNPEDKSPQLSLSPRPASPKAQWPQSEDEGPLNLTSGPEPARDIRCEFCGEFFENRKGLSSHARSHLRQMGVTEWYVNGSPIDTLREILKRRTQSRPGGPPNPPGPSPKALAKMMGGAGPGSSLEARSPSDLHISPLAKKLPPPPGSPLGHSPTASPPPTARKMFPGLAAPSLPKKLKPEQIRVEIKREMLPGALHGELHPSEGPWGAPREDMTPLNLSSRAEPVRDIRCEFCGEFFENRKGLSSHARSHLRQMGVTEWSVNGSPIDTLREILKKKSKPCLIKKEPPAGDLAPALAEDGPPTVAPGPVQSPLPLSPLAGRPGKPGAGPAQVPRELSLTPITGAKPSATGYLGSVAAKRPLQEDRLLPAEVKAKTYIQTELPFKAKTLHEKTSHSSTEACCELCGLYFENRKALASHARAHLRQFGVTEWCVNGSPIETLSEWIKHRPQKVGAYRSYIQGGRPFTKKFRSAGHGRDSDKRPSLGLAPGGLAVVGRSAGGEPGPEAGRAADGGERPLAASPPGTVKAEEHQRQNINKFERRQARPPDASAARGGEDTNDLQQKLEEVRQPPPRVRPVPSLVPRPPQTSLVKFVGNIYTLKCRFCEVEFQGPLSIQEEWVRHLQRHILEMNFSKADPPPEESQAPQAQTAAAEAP

[20] = Half-life in C57BL/6 mouse at 1 mg/kg, iv; format: ADME, organism-based; settings: in vivo
[21] = target: T1, Protein cereblon/Protein Wiz; experiment: Molecular glue activity at CRBN/WIZ in human CD34-positive derived primary erythroblast cells assessed as induction of WIZ degradation measured after 24 hrs by flow cytometric analysis; format: cell-based
Target sequence in this assay (Q96SW2 whole entry): as the sequence (Q96SW2 whole entry) above
Target sequence in this assay (O95785 whole entry): as the sequence (O95785 whole entry) above

[22] = target: T4, Protein cereblon/Eukaryotic peptide chain release factor GTP-binding subunit ERF3A; experiment: Molecular glue activity at CRBN/HiBiT-tagged GSPT1 (unknown origin) expressed in human GripTite 293 MSR cells assessed as induction of GSPT1 degradation incubated for 20 hrs by Nano-Glo HiBiT-Lytic reagent based luminescence plate reader analysis relative to control; format: cell-based; set-up: concentration or dose not given beside the values
Target sequence in this assay (P15170 whole entry, looked up): as the sequence (P15170 whole entry) above
Target sequence in this assay (Q96SW2 whole entry, looked up): as the sequence (Q96SW2 whole entry) above

[23] = target: T1, Protein cereblon/Protein Wiz; experiment: Molecular glue activity at CRBN/HiBiT-tagged WIZ (unknown origin) expressed in HEK293T cells assessed as induction of WIZ degradation incubated for 18 hrs by Nano-Glo HiBiT-Lytic reagent based luminescence plate reader analysis relative to control; format: cell-based; set-up: concentration or dose not given beside the values
[24] = Protein binding in human plasma; format: ADME, cell-free; settings: read-out: PPB (converted)
[25] = target: Protein cereblon/Protein Wiz (Homo sapiens, UniProt O95785+Q96SW2); experiment: Molecular glue activity at CRBN/WIZ in human CD34-positive derived primary erythroblast cells assessed as increase in fetal hemoglobin positive cells in CD71+ CD235a+ subpopulation measured after 7 days by flow cytometric analysis; format: cell-based
[26] = Apparent permeability across apical to basolateral side in low efflux MDCK cells at 10 uM incubated for 2 hrs by LC-MS analysis; format: ADME, cell-based, Canis lupus familiaris; settings: dog
[27] = target: T3, Cereblon/Ikaros; experiment: Molecular glue activity at CRBN/HiBiT-tagged IKZF1 (unknown origin) expressed in human GripTite 293 MSR cells assessed as induction of […] incubated for 20 hrs by Nano-Glo HiBiT-Lytic reagent based luminescence plate reader analysis relative to control; format: cell-based; set-up: concentration or dose not given beside the values
[28] = Intrinsic clearance in rat liver microsomes; format: ADME, Microsome; settings: read-out: CLH
[29] = target: T1, Protein cereblon/Protein Wiz; experiment: In vivo molecular glue activity at CRBN/WIZ in immunocompromised naive NBSGW mouse xenografted with human CD34 positive HSPC cells assessed as induction of WIZ degradation in peripheral blood human […] B cells administered orally once daily for 21 days by staining based analysis; format: functional, organism-based; settings: route po, time 21.0 day
[30] = target: T1, Protein cereblon/Protein Wiz; experiment: In vivo molecular glue activity at CRBN/WIZ in immunocompromised naive NBSGW mouse xenografted with human CD34 positive HSPC cells assessed as induction of WIZ degradation in peripheral blood human C19-positive B cells by measuring maximal efficacy at 1 to 10 mg/kg, po administered once daily for 21 days by staining based analysis relative to control; format: functional, organism-based; settings: dose 1-10 mg/kg, time 21.0 day
[31] = target: T1, Protein cereblon/Protein Wiz; experiment: In vivo molecular glue activity at CRBN/WIZ in immunocompromised naive NBSGW mouse xenografted with human CD34 positive HSPC cells assessed as fold increase in Hbf-positive cells in moCD45 negative hCD45negative CD71positive CD235A positive bone marrow cells at 1 to 10 mg/kg, po administered once daily for 21 days by staining based analysis; format: functional, organism-based; settings: dose 1-10 mg/kg, time 21.0 day
[32] = Toxicity in immunocompromised naive NBSGW mouse xenografted with human CD34 positive HSPC cells assessed as effect on body weight at 1 to 10 mg/kg, po administered once daily for 21 days; format: organism-based; settings: in vivo, 504 h, dose 1-10 mg/kg, time 21 day
[33] = Toxicity in immunocompromised naive NBSGW mouse xenografted with human CD34 positive HSPC cells assessed as effect on body weight at 0.01 to 1 mg/kg, po administered once daily for 21 days; format: organism-based; settings: in vivo, 504 h, dose 0.01-1 mg/kg, time 21 day

T3 sequence (Q96SW2 whole entry): as above
T3 sequence (Q13422 whole entry): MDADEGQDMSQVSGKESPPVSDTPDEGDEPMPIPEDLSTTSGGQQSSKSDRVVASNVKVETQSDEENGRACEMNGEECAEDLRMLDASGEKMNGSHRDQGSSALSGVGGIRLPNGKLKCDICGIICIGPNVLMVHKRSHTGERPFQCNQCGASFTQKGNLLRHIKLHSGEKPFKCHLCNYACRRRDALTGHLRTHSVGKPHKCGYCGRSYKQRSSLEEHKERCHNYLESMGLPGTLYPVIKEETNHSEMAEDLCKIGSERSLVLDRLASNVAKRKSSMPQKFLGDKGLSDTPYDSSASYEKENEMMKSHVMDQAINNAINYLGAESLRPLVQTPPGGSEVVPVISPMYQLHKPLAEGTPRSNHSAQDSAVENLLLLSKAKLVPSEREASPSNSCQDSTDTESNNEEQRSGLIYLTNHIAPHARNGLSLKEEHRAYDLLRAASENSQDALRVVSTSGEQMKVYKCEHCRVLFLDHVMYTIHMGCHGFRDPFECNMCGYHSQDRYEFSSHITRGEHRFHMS

Row | SMILES | AUC(0-t) [2] | Cmax [3] | DC50 [4] | microsomal CLint [5] | Vd [6] | solubility [7] | DC50 [8] | fraction unbound [9] | Tmax [10] | recovery at 2 h, 10 µM [11] | clearance [12] | microsomal CLint [14] | DC50 [15] | fraction unbound [16] | bioavailability [17] | DC50 [19] | Activity [13] | Activity [22] | Activity [23] | Activity [27] | further results
1 | CCN1C[C@H](Oc2ccc3c(c2)CN(C2CCC(=O)NC2=O)C3=O)CC[C@@H]1C (some centres not stated) | 0.377 µM·h | 118 nM | > 50 µM | < 25 µL/min/mg | 4.4 L/kg | 480 µM (≈ 185 µg/mL) | > 50 µM | 0.77 | 1 h | 75% | 29 mL/min/kg | < 25 µL/min/mg | > 50 µM | 0.71 | 8.5% | 0.003 µM | 32% | < 10% | 88% | 10% | Emax [1]: 84%; Activity [18]: 36%; half-life [20]: 3.2 h; DC50 [21]: 0.003 µM; fraction unbound [24]: 0.72; EC50 [25]: 0.078 µM; Papp A→B at 2 h, 10 µM [26]: 0.3 ×10⁻⁶ cm/s; microsomal CLint [28]: < 25 µL/min/mg
2 | CCN1C[C@@H](C)C[C@@H](Oc2ccc3c(c2)CN(C2CCC(=O)NC2=O)C3=O)C1 (mixture of isomers) |  |  | > 50 µM |  |  |  | > 50 µM |  |  |  |  |  | > 50 µM |  |  | > 25 µM | 32% | < 10% | 42% | < 10% | 
3 | CCN1C[C@H](Oc2ccc3c(c2)CN(C2CCC(=O)NC2=O)C3=O)CC[C@H]1C (some centres not stated) |  |  | > 50 µM |  |  |  | > 50 µM |  |  |  |  |  | > 50 µM |  |  | 0.105 µM | 27% | < 10% | 60% | < 10% | 

Further lines, with some results ahead:

Row | AUC(0-t) [2] | Cmax [3] | DC50 [4] | microsomal CLint [5] | Vd [6] | solubility [7] | DC50 [8] | fraction unbound [9] | Tmax [10] | recovery at 2 h, 10 µM [11] | clearance [12] | microsomal CLint [14] | DC50 [15] | fraction unbound [16] | bioavailability [17] | DC50 [19] | SMILES | Activity [13] | Activity [22] | Activity [23] | Activity [27] | further results
4 |  |  | > 50 µM |  |  |  | > 50 µM |  |  |  |  |  | > 50 µM |  |  | 0.013 µM | CCN1C[C@H](C)C[C@@H](Oc2ccc3c(c2)CN(C2CCC(=O)NC2=O)C3=O)C1 (mixture of isomers) |  |  |  |  | 
5 | 0.713 µM·h | 157 nM | 3.8 µM | < 25 µL/min/mg | 2.2 L/kg | 450 µM (≈ 173 µg/mL) | > 50 µM | > 0.8 | 2.3 h | 95% | 22 mL/min/kg | < 25 µL/min/mg | > 50 µM | > 0.8 | 13% |  | CCN1CCCC[C@@H]1COc1ccc2c(c1)CN(C1CCC(=O)NC1=O)C2=O (some centres not stated) | 50% | < 10% | 82% | < 10% | Emax [1]: 74%; Activity [29]: Dose-dependent-effect; Emax [30]: 63%; fold change (FC) [31]: 5; Activity [18]: 20%; half-life [20]: 1.7 h; Activity [32]: Non-toxic; fraction unbound [24]: > 0.8; Papp A→B at 2 h, 10 µM [26]: 1.1 ×10⁻⁶ cm/s; microsomal CLint [28]: < 25 µL/min/mg
6 | 1.12 µM·h | 224 nM |  | < 10 µL/min/mg | 2.8 L/kg | 380 µM (≈ 146 µg/mL) |  | > 0.8 | 1.7 h | 84% | 29 mL/min/kg | < 10 µL/min/mg |  | > 0.8 | 23% | 0.003 µM | CCN1C[C@H](C)C[C@@H](Oc2ccc3c(c2)CN(C2CCC(=O)NC2=O)C3=O)C1 (stereo in doubt; 10) |  |  |  |  | Activity [33]: Non-toxic; half-life [20]: 2.2 h; DC50 [21]: 0.002 µM; fraction unbound [24]: 0.76; EC50 [25]: 0.04 µM; Papp A→B at 2 h, 10 µM [26]: 0.5 ×10⁻⁶ cm/s; microsomal CLint [28]: < 10 µL/min/mg

Source: ChEMBL document CHEMBL6074667, “Discovery and Optimization of First-in-Class Molecular Glue Degraders of the WIZ Transcription Factor for Fetal Hemoglobin Induction to Treat Sickle Cell Disease” (J Med Chem, 2024)
